The target in this assay is T1, MMP-13 (Homo sapiens, UniProt P45452).
T1 construct: purchased GenzymeTechne
The assay is described as follows: MMP-13 inhibitory activity (fluorogenic substrate Cy3-PLGLK(Cy5Q)AR-NH2 enzyme assay). Conditions: compound 1 μM; 37° C., 40 min; APMA-activated MMP-13 precursor; read-out: MMP-13 inhibitory rate (%) at 1 μM. The class given is biochemical. As for the experimental part:
To 10 μg of MMP-13 precursor (GenzymeTechne) was added 1 ml of assay buffer (50 mM Tris-HCl (pH 7.5), 10 mM CaCl2, 150 mM NaCl, 0.05% Brij-35), and 4-aminophenylmercuric acid (Sigma) was added to the final concentration of 1 mM. The MMP-13 precursor was activated by incubating at 37° C. for 2 hr.
In a 96 well black plate (Corning), to 6.3 ng/ml of MMP-13 solution (49 μl) diluted with assay buffer was added the test compound (1 μl) diluted with dimethyl sulfoxide (DMSO) and 620 nM Cy3-PLGLK(Cy5Q)AR-NH2 (50 μl, synthesized by Amersham Biosciences) in assay buffer was added to start the enzyme reaction. After incubation at 37° C. for 40 min, 500 mM EDTA solution (6 μl) was added to stop the reaction. For measurement, Farcyte (Amersham Biosciences) was used to measure at excitation wavelength 535 nm and measurement wavelength 595 nm.
T: value of well with addition of DMSO instead of test compound
C: value of well with addition of DMSO instead of test compound and addition of EDTA solution before addition of substrate solution
X: value of well with addition of test compound

In the case of `COc1ccc2nc(C(=O)NCc3cccc(OCCSc4nc[nH]n4)c3)[nH]c(=O)c2c1` [Example 4, 6-(methyloxy)-4-oxo-N-[(3-{[2-(1H-1,2,4-triazol-3-ylthio)ethyl]oxy}phenyl)methyl]-3,4-dihydroquinazoline-2-carboxamide], the inhibition at 1 µM was 99%. Take `O=C(NCc1cccc(OCCSc2nc[nH]n2)c1)c1nc2cccc(F)c2c(=O)[nH]1` [Example 10, 5-fluoro-4-oxo-N-[(3-{[2-(1H-1,2,4-triazol-3-ylthio)ethyl]oxy}phenyl)methyl]-3,4-dihydroquinazoline-2-carboxamide]: the inhibition at 1 µM came to 98%. As for `N#Cc1ccc2nc(C(=O)NCc3cccc(COCc4nc[nH]n4)c3)[nH]c(=O)c2c1` [Example 31, 6-cyano-4-oxo-N-[(3-{[(1H-1,2,4-triazol-3-ylmethyl)oxy]methyl}phenyl)methyl]-3,4-dihydroquinazoline-2-carboxamide], the inhibition at 1 µM was found to be 97%. On to `N#Cc1ccc2nc(C(=O)NCc3cccc(CNC(=O)c4nc[nH]n4)c3)[nH]c(=O)c2c1` [Example 36, 6-cyano-4-oxo-N-[(3-{[(1H-1,2,4-triazol-3-ylcarbonyl)amino]methyl}phenyl)methyl]-3,4-dihydroquinazoline-2-carboxamide], for which the inhibition at 1 µM came out at 97%. To `Cc1csc2nc(C(=O)NCc3ccnc(OCCSc4nc[nH]n4)c3)[nH]c(=O)c12` [Example 21, 5-methyl-4-oxo-N-[(2-{[2-(1H-1,2,4-triazol-3-ylthio)ethyl]oxy}pyridin-4-yl)methyl]-3,4-dihydrothieno[2,3-d]pyrimidine-2-carboxamide] belongs 100%; to `O=C(NCc1cccc(OCCSc2nc[nH]n2)c1)c1nc2sccc2c(=O)[nH]1` [Example 11, 4-oxo-N-[(3-{[2-(1H-1,2,4-triazol-3-ylthio)ethyl]oxy}phenyl)methyl]-3,4-dihydrothieno[2,3-d]pyrimidine-2-carboxamide], 97%.

For `Cc1csc2nc(C(=O)NCc3cccc(NC(=O)c4nc[nH]n4)c3)[nH]c(=O)c12` [Example 39, 5-methyl-4-oxo-N-({3-[(1H-1,2,4-triazol-3-ylcarbonyl)amino]phenyl}methyl)-3,4-dihydrothieno[2,3-d]pyrimidine-2-carboxamide], the inhibition at 1 µM amounted to 81%. To `O=C(NCc1cccc(OCCSc2nc[nH]n2)c1)c1nc2ccc(F)cc2c(=O)[nH]1` [Example 3, 6-fluoro-4-oxo-N-[(3-{[2-(1H-1,2,4-triazol-3-ylthio)ethyl]oxy}phenyl)methyl]-3,4-dihydroquinazoline-2-carboxamide] belongs 98%; to `Cc1cccc2nc(C(=O)NCc3cccc(OCCSc4nc[nH]n4)c3)[nH]c(=O)c12` [Example 9, 5-methyl-4-oxo-N-[(3-{[2-(1H-1,2,4-triazol-3-ylthio)ethyl]oxy}phenyl)methyl]-3,4-dihydroquinazoline-2-carboxamide], 98%. To `O=C(NCc1cccc(OCCOc2nc[nH]n2)c1)c1nc2scc(-c3ccco3)c2c(=O)[nH]1` [Example 28, 5-furan-2-yl-4-oxo-N-[(3-{[2-(1H-1,2,4-triazol-3-yloxy)ethyl]oxy}phenyl)methyl]-3,4-dihydrothieno[2,3-d]pyrimidine-2-carboxamide] belongs 96%.

Take `Cc1ccc2nc(C(=O)NCc3cccc(OCCSc4nc[nH]n4)c3)[nH]c(=O)c2c1` [Example 6, 6-methyl-4-oxo-N-[(3-{[2-(1H-1,2,4-triazol-3-ylthio)ethyl]oxy}phenyl)methyl]-3,4-dihydroquinazoline-2-carboxamide]: the inhibition at 1 µM worked out at 97%. Regarding `N#Cc1ccc2nc(C(=O)NCc3cccc(CNC(=O)Cc4nc[nH]n4)c3)[nH]c(=O)c2c1` [Example 34, 6-cyano-4-oxo-N-[(3-{[(1H-1,2,4-triazol-3-ylacetyl)amino]methyl}phenyl)methyl]-3,4-dihydroquinazoline-2-carboxamide], the inhibition at 1 µM is 90%. For `O=C(CCCOc1cccc(CNC(=O)c2nc3ccccc3c(=O)[nH]2)c1)Nc1nc[nH]n1` [Example 40, 4-oxo-N-[(3-{[4-oxo-4-(1H-1,2,4-triazol-3-ylamino)butyl]oxy}phenyl)methyl]-3,4-dihydroquinazoline-2-carboxamide], the inhibition at 1 µM is 94%.

Regarding `O=C(NCc1ccnc(OCCCc2nc[nH]n2)c1)c1nc2ccccc2c(=O)[nH]1` [Example 22, 4-oxo-N-[(2-{[3-(1H-1,2,4-triazol-3-yl)propyl]oxy}pyridin-4-yl)methyl]-3,4-dihydroquinazoline-2-carboxamide], the inhibition at 1 µM came out at 95%. In the case of `O=C(NCc1cccc(OCCOc2nc[nH]n2)c1)c1nc2ccc(F)c(F)c2c(=O)[nH]1` [Example 44, 5,6-difluoro-4-oxo-N-[(3-{[2-(1H-1,2,4-triazol-3-yloxy)ethyl]oxy}phenyl)methyl]-3,4-dihydroquinazoline-2-carboxamide], the inhibition at 1 µM was found to be 98%. Regarding `N#Cc1ccc2nc(C(=O)NCc3cccc(NC(=O)c4nc[nH]n4)c3)[nH]c(=O)c2c1` [Example 38, 6-cyano-4-oxo-N-({3-[(1H-1,2,4-triazol-3-ylcarbonyl)amino]phenyl}methyl)-3,4-dihydroquinazoline-2-carboxamide], the inhibition at 1 µM came out at 85%. With `Nc1ccc2nc(C(=O)NCc3cccc(OCCSc4nc[nH]n4)c3)[nH]c(=O)c2c1` [Example 7, 6-amino-4-oxo-N-[(3-{[2-(1H-1,2,4-triazol-3-ylthio)ethyl]oxy}phenyl)methyl]-3,4-dihydroquinazoline-2-carboxamide], the inhibition at 1 µM was 97%.

The values above are taken from patent US7915267B2, “Heterocyclic amide compound and use thereof” (Takeda Pharmaceutical Company Limited, priority 2005, dated 2011).
